In ChEMBL document CHEMBL1201862, “PubChem BioAssay data set” (2004):
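Each compound was tested at five concentrations against cells in 96-well plates for 48 hours. GI50 marks 50% less growth.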 The source made the active and inactive calls. No stated cut-off is given here; in the data, active = GI50 up to about 1.1 µM and inactive = higher.

Key:
Test in all cases: NCI tumour cell line growth inhibition, 48 h
[1] = system: 786-0
[2] = system: CAKI-1
[3] = system: COLO 205
[4] = system: DLD-1
[5] = system: HOP-92
[6] = system: K562
[7] = system: M14
[8] = system: MOLT-4
[9] = system: Malme-3M
[10] = system: NCI-H460
[11] = system: OVCAR-3
[12] = system: SF-268
[13] = system: SF-539
[14] = system: SK-OV-3
[15] = system: SNB-19
[16] = system: MCF7
[17] = system: MDA-MB-435
[18] = system: PC-3
[19] = system: T47D
[20] = system: BT-549

SMILES	GI50 [1]	GI50 [2]	GI50 [3]	GI50 [4]	GI50 [5]	GI50 [6]	GI50 [7]	GI50 [8]	GI50 [9]	GI50 [10]	GI50 [11]	GI50 [12]	GI50 [13]	GI50 [14]	GI50 [15]	GI50 [16]	GI50 [17]	GI50 [18]	GI50 [19]	GI50 [20]
Cc1c2ccccc2c(=O)n2c(-c3ccccn3)cccc12	> 100 µM (inactive)	> 100 µM (inactive)	> 100 µM (inactive)	> 100 µM (inactive)	> 100 µM (inactive)	> 100 µM (inactive)	78.7 µM (inactive)	79.8 µM (inactive)	> 100 µM (inactive)	> 100 µM (inactive)	97.1 µM (inactive)	> 100 µM (inactive)	> 100 µM (inactive)	> 100 µM (inactive)	> 100 µM (inactive)					
CNC(=O)N(C)/N=N/CCCl	> 100 µM (inactive)	> 100 µM (inactive)	> 100 µM (inactive)	> 100 µM (inactive)	> 100 µM (inactive)	> 100 µM (inactive)	> 100 µM (inactive)	> 100 µM (inactive)	> 100 µM (inactive)	> 100 µM (inactive)	> 100 µM (inactive)	> 100 µM (inactive)	> 100 µM (inactive)	> 100 µM (inactive)	> 100 µM (inactive)	> 100 µM (inactive)	> 100 µM (inactive)	> 100 µM (inactive)	> 100 µM (inactive)	
Cc1cc2c(ccc3c(C)cc(=O)oc32)o1	> 100 µM (inactive)	> 100 µM (inactive)	> 100 µM (inactive)	> 100 µM (inactive)	> 100 µM (inactive)	> 100 µM (inactive)	> 100 µM (inactive)	> 100 µM (inactive)	> 100 µM (inactive)	> 100 µM (inactive)	> 100 µM (inactive)	> 81.3 µM (inactive)	> 100 µM (inactive)	> 100 µM (inactive)	> 100 µM (inactive)					
COC(=O)/C(=N\O)C(C(=O)C=C(C)C)C(=O)C(=O)Nc1ccccc1C (centres undefined)	> 100 µM (inactive)	> 100 µM (inactive)	> 100 µM (inactive)	> 100 µM (inactive)	> 100 µM (inactive)	> 100 µM (inactive)	> 100 µM (inactive)	> 100 µM (inactive)	> 100 µM (inactive)	> 100 µM (inactive)	> 100 µM (inactive)	> 100 µM (inactive)	> 100 µM (inactive)	> 100 µM (inactive)	> 100 µM (inactive)					
O=C(Nc1ccccc1-c1nc2ccccc2[nH]c1=O)c1ccccc1	17.3 µM (inactive)	29.9 µM (inactive)	> 100 µM (inactive)	29.2 µM (inactive)	21.4 µM (inactive)	> 100 µM (inactive)	59.6 µM (inactive)	> 100 µM (inactive)	32.1 µM (inactive)	21.5 µM (inactive)	20.3 µM (inactive)	22.9 µM (inactive)	20.6 µM (inactive)	20.3 µM (inactive)	24.2 µM (inactive)					
c1ccc2c(NCCCCCCNc3cccc4ccccc34)cccc2c1	> 100 µM (inactive)	> 100 µM (inactive)	> 100 µM (inactive)	> 100 µM (inactive)	50.7 µM (inactive)	> 100 µM (inactive)	> 100 µM (inactive)	44.3 µM (inactive)	> 100 µM (inactive)	> 100 µM (inactive)	> 100 µM (inactive)	> 100 µM (inactive)	> 100 µM (inactive)	> 100 µM (inactive)	> 100 µM (inactive)					
NC1=NN(c2ccccc2)C(=O)C1C(=O)C(=O)Nc1ccc(Cl)c(Cl)c1 (centres undefined)	> 100 µM (inactive)	55.3 µM (inactive)	> 100 µM (inactive)	> 100 µM (inactive)	> 100 µM (inactive)	32 µM (inactive)	> 100 µM (inactive)	> 100 µM (inactive)	> 100 µM (inactive)	> 100 µM (inactive)	> 100 µM (inactive)	> 100 µM (inactive)	> 100 µM (inactive)	> 100 µM (inactive)	1.06 µM (active)					
C/C1=C\[C@H](C)C[C@H](C)OC(=O)C[C@H](c2ccc(O)cc2)NC(=O)[C@@H](Cc2c(Br)[nH]c3ccccc23)N(C)C(=O)[C@H](C)NC(=O)[C@@H](C)C1 [JASPAMIDE]	0.128 µM (active)	0.092 µM (active)	0.207 µM (active)	0.843 µM (active)	0.237 µM (active)	0.667 µM (active)	0.211 µM (active)	0.682 µM (active)	0.148 µM (active)	0.233 µM (active)	0.139 µM (active)	0.139 µM (active)	0.0249 µM (active)	0.185 µM (active)	0.213 µM (active)	0.0895 µM (active)	0.063 µM (active)	0.0667 µM (active)	0.0512 µM (active)	0.0292 µM (active)
CSc1ccc2c(cc1=O)[C@@H](NC(=O)c1ccc(Cl)cc1)CCc1cc(O)c(O)c(O)c1-2	> 100 µM (inactive)	45.9 µM (inactive)	62.5 µM (inactive)	26.1 µM (inactive)	> 100 µM (inactive)	18.2 µM (inactive)	34.7 µM (inactive)	26.3 µM (inactive)	> 100 µM (inactive)	43.5 µM (inactive)	23.2 µM (inactive)	> 100 µM (inactive)	29.8 µM (inactive)	> 100 µM (inactive)	49.5 µM (inactive)					
